Columns and labels:
Assay type in all cases: in vivo
[1] = system: ABUTH: velvetleaf (Abutilon theophrasti); experiment: Post-emergent herbicidal test, velvetleaf; settings: post-emergence, 336 h, 14 days after application, read-out: Visual Growth Reduction (%) 14 Days After Application ABUTH; for pest or weed control at 17.5 g/ha: 17.5 g ai/ha; for pest or weed control at 35 g/ha: 35 g ai/ha; for pest or weed control at 70 g/ha: 70 g ai/ha; for pest or weed control at 140 g/ha: 140 g ai/ha
Summary of the method: (§1)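 Greenhouse-grown plants at the first or second true leaf stage (7-21 d, ~15 h photoperiod, 23-29° C day) were sprayed overhead at 187 L/ha with compound in acetone/DMSO-based spray solution containing crop oil concentrate and surfactant. Injury was scored visually after 14 d, 0-100% versus untreated plants.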

[2] = system: BRSNN: oilseed rape, canola (Brassica napus); experiment: Post-emergent herbicidal test, oilseed rape; settings: post-emergence, 336 h, 14 days after application, read-out: Visual Growth Reduction (%) 14 Days After Application BRSNN; for pest or weed control at 17.5 g/ha: 17.5 g ai/ha; for pest or weed control at 35 g/ha: 35 g ai/ha; for pest or weed control at 70 g/ha: 70 g ai/ha; for pest or weed control at 140 g/ha: 140 g ai/ha
Summary of the method: as §1

[3] = system: CIRAR: Canada thistle (Cirsium arvense); experiment: Post-emergent herbicidal test, Canada thistle; settings: post-emergence, 336 h, 14 days after application, read-out: Visual Growth Reduction (%) 14 Days After Application CIRAR; for pest or weed control at 17.5 g/ha: 17.5 g ai/ha; for pest or weed control at 35 g/ha: 35 g ai/ha; for pest or weed control at 70 g/ha: 70 g ai/ha; for pest or weed control at 140 g/ha: 140 g ai/ha
Summary of the method: as §1

[4] = system: EPHHL: wild poinsettia (Euphorbia heterophylla); experiment: Post-emergent herbicidal test, wild poinsettia; settings: post-emergence, 336 h, 14 days after application, read-out: Visual Growth Reduction (%) 14 Days After Application EPHHL; for pest or weed control at 17.5 g/ha: 17.5 g ai/ha; for pest or weed control at 35 g/ha: 35 g ai/ha; for pest or weed control at 70 g/ha: 70 g ai/ha; for pest or weed control at 140 g/ha: 140 g ai/ha
Summary of the method: as §1

[5] = system: IPOHE: ivyleaf morningglory (Ipomoea hederacea); experiment: Post-emergent herbicidal test, ivyleaf morningglory; settings: post-emergence, 336 h, 14 days after application, read-out: Visual Growth Reduction (%) 14 Days After Application IPOHE; for pest or weed control at 17.5 g/ha: 17.5 g ai/ha; for pest or weed control at 35 g/ha: 35 g ai/ha; for pest or weed control at 70 g/ha: 70 g ai/ha; for pest or weed control at 140 g/ha: 140 g ai/ha
Summary of the method: as §1

[6] = system: VIOTR: wild violet (Viola tricolor); experiment: Post-emergent herbicidal test, wild violet; settings: post-emergence, 336 h, 14 days after application, read-out: Visual Growth Reduction (%) 14 Days After Application VIOTR; for pest or weed control at 17.5 g/ha: 17.5 g ai/ha; for pest or weed control at 35 g/ha: 35 g ai/ha; for pest or weed control at 70 g/ha: 70 g ai/ha; for pest or weed control at 140 g/ha: 140 g ai/ha
Summary of the method: as §1

[7] = system: CYPES: yellow nutsedge (Cyperus esculentus); experiment: Post-emergent herbicidal test, yellow nutsedge; settings: post-emergence, 336 h, 14 days after application, read-out: Visual Growth Reduction (%) 14 Days After Application CYPES; for pest or weed control at 17.5 g/ha: 17.5 g ai/ha; for pest or weed control at 35 g/ha: 35 g ai/ha; for pest or weed control at 70 g/ha: 70 g ai/ha; for pest or weed control at 140 g/ha: 140 g ai/ha
Summary of the method: as §1

[8] = system: DIGSA: large crabgrass (Digitaria sanguinalis); experiment: Post-emergent herbicidal test, large crabgrass; settings: post-emergence, 336 h, 14 days after application, read-out: Visual Growth Reduction (%) 14 Days After Application DIGSA; for pest or weed control at 17.5 g/ha: 17.5 g ai/ha; for pest or weed control at 35 g/ha: 35 g ai/ha; for pest or weed control at 70 g/ha: 70 g ai/ha; for pest or weed control at 140 g/ha: 140 g ai/ha
Summary of the method: as §1

[9] = system: ECHCG: barnyardgrass (Echinochloa crus-galli); experiment: Post-emergent herbicidal test, barnyardgrass; settings: post-emergence, 336 h, 14 days after application, read-out: Visual Growth Reduction (%) 14 Days After Application ECHCG; for pest or weed control at 17.5 g/ha: 17.5 g ai/ha; for pest or weed control at 35 g/ha: 35 g ai/ha; for pest or weed control at 70 g/ha: 70 g ai/ha; for pest or weed control at 140 g/ha: 140 g ai/ha
Summary of the method: as §1

[10] = system: SETFA: giant foxtail (Setaria faberi); experiment: Post-emergent herbicidal test, giant foxtail; settings: post-emergence, 336 h, 14 days after application, read-out: Visual Growth Reduction (%) 14 Days After Application SETFA; for pest or weed control at 17.5 g/ha: 17.5 g ai/ha; for pest or weed control at 35 g/ha: 35 g ai/ha; for pest or weed control at 70 g/ha: 70 g ai/ha; for pest or weed control at 140 g/ha: 140 g ai/ha
Summary of the method: as §1

[11] = system: SORVU: shattercane (Sorghum bicolor); experiment: Post-emergent herbicidal test, shattercane; settings: post-emergence, 336 h, 14 days after application, read-out: Visual Growth Reduction (%) 14 Days After Application SORVU; for pest or weed control at 17.5 g/ha: 17.5 g ai/ha; for pest or weed control at 35 g/ha: 35 g ai/ha; for pest or weed control at 70 g/ha: 70 g ai/ha; for pest or weed control at 140 g/ha: 140 g ai/ha
Summary of the method: as §1

COC(=O)c1nc(-c2ccc(I)c3c2OC(F)(F)O3)c(F)c(N)c1Cl [Compound 10]
pest or weed control at 17.5 g/ha [1]: 65% | pest or weed control at 35 g/ha [1]: 70% | pest or weed control at 70 g/ha [1]: 75% | pest or weed control at 140 g/ha [1]: 75% | pest or weed control at 17.5 g/ha [2]: 50% | pest or weed control at 35 g/ha [2]: 60% | pest or weed control at 70 g/ha [2]: 65% | pest or weed control at 140 g/ha [2]: 70% | pest or weed control at 17.5 g/ha [3]: 60% | pest or weed control at 35 g/ha [3]: 70% | pest or weed control at 70 g/ha [3]: 70% | pest or weed control at 140 g/ha [3]: 75% | pest or weed control at 17.5 g/ha [4]: 0% | pest or weed control at 35 g/ha [4]: 0% | pest or weed control at 70 g/ha [4]: 0% | pest or weed control at 140 g/ha [4]: 0% | pest or weed control at 17.5 g/ha [5]: 0% | pest or weed control at 35 g/ha [5]: 0% | pest or weed control at 70 g/ha [5]: 0% | pest or weed control at 140 g/ha [5]: 0% | pest or weed control at 17.5 g/ha [6]: 0% | pest or weed control at 35 g/ha [6]: 0% | pest or weed control at 70 g/ha [6]: 0% | pest or weed control at 140 g/ha [6]: 0% | pest or weed control at 17.5 g/ha [7]: 0% | pest or weed control at 35 g/ha [7]: 0% | pest or weed control at 70 g/ha [7]: 0% | pest or weed control at 140 g/ha [7]: 0% | pest or weed control at 17.5 g/ha [8]: 0% | pest or weed control at 35 g/ha [8]: 0% | pest or weed control at 70 g/ha [8]: 0% | pest or weed control at 140 g/ha [8]: 0% | pest or weed control at 17.5 g/ha [9]: 0% | pest or weed control at 35 g/ha [9]: 0% | pest or weed control at 70 g/ha [9]: 0% | pest or weed control at 140 g/ha [9]: 0% | pest or weed control at 17.5 g/ha [10]: 0% | pest or weed control at 35 g/ha [10]: 0% | pest or weed control at 70 g/ha [10]: 0% | pest or weed control at 140 g/ha [10]: 0% | pest or weed control at 17.5 g/ha [11]: 0% | pest or weed control at 35 g/ha [11]: 0% | pest or weed control at 70 g/ha [11]: 0% | pest or weed control at 140 g/ha [11]: 0%

Nc1c(F)c(-c2ccc(Cl)c3c2OCO3)nc(C(=O)OCc2ccccc2)c1Cl [Compound 1B]
pest or weed control at 17.5 g/ha [1]: 90% | pest or weed control at 35 g/ha [1]: 95% | pest or weed control at 70 g/ha [1]: 100% | pest or weed control at 140 g/ha [1]: 100% | pest or weed control at 17.5 g/ha [2]: 95% | pest or weed control at 35 g/ha [2]: 100% | pest or weed control at 70 g/ha [2]: 100% | pest or weed control at 140 g/ha [2]: 100% | pest or weed control at 17.5 g/ha [3]: 75% | pest or weed control at 35 g/ha [3]: 80% | pest or weed control at 70 g/ha [3]: 85% | pest or weed control at 140 g/ha [3]: 90% | pest or weed control at 17.5 g/ha [4]: 10% | pest or weed control at 35 g/ha [4]: 10% | pest or weed control at 70 g/ha [4]: 15% | pest or weed control at 140 g/ha [4]: 10% | pest or weed control at 17.5 g/ha [5]: 0% | pest or weed control at 35 g/ha [5]: 0% | pest or weed control at 70 g/ha [5]: 0% | pest or weed control at 140 g/ha [5]: 10% | pest or weed control at 17.5 g/ha [6]: 40% | pest or weed control at 35 g/ha [6]: 75% | pest or weed control at 70 g/ha [6]: 60% | pest or weed control at 140 g/ha [6]: 75% | pest or weed control at 17.5 g/ha [7]: 75% | pest or weed control at 35 g/ha [7]: 85% | pest or weed control at 70 g/ha [7]: 85% | pest or weed control at 140 g/ha [7]: 90% | pest or weed control at 17.5 g/ha [8]: 0% | pest or weed control at 35 g/ha [8]: 0% | pest or weed control at 70 g/ha [8]: 20% | pest or weed control at 140 g/ha [8]: 50% | pest or weed control at 17.5 g/ha [9]: 0% | pest or weed control at 35 g/ha [9]: 0% | pest or weed control at 70 g/ha [9]: 0% | pest or weed control at 140 g/ha [9]: 0% | pest or weed control at 17.5 g/ha [10]: 0% | pest or weed control at 35 g/ha [10]: 0% | pest or weed control at 70 g/ha [10]: 20% | pest or weed control at 140 g/ha [10]: 50% | pest or weed control at 17.5 g/ha [11]: 25% | pest or weed control at 35 g/ha [11]: 50% | pest or weed control at 70 g/ha [11]: 60% | pest or weed control at 140 g/ha [11]: 85%
